Activity calls are given as the source filed them. The rule behind the calls is not given here.

This assay is described as follows: SKN7 mediated toxicity in Saccharomyces cerevisiae, growth rescue counterscreen, dose confirmation (AID 624258).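 Note: growth read after three days of incubation at 30 °C; 0% = median of neutral control wells.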 Particulars: S. cerevisiae SKN7-toxicity growth rescue, plate reader; at 19.5 µM (top of the series).

Turning to `Cc1cc(C(F)(F)F)n2[nH]c(=O)c(N=Nc3ccccc3)c2n1`, the growth rescue activity is -58.6% (inactive). Turning to `COC(=O)c1cc(C#N)c(Oc2ccc(F)cc2)nc1C`, the growth rescue activity is -11.6% (inactive). To `COc1cnc(-c2ccccn2)nc1Sc1ccc(C)cc1` belongs -65.7% (inactive); to `O=C(Nc1cc(Oc2ccc(Cl)cc2)cc([N+](=O)[O-])c1)c1ccco1`, -42.9% (inactive); to `CC(Nc1cccc2ccccc12)C(=O)N/N=C/c1ccccn1` (stereo unspecified), -11.5% (inactive). Turning to `CCCCCCCCCCSc1n[nH]c(N)n1`, the growth rescue activity was -93.1% (inactive). In the case of `C=CCOc1ccc(-c2n[nH]c(=S)o2)cc1`, the growth rescue activity is -47.1% (inactive). Then `CCCCC(=O)NC(c1ccco1)c1cc(Cl)c2cccnc2c1O` (stereo unspecified), with -45% (inactive).

For the molecule `CCCCC(c1nnnn1Cc1ccco1)N1CCN(c2nc3ccccc3s2)CC1` (stereo unspecified), the growth rescue activity is -9.41% (inactive). With `Cc1c(C(=O)O)cccc1-c1ccc(/C=N/Nc2ccc(Br)cc2)o1`, the growth rescue activity was -92.6% (inactive).

With `O=C(c1cc(COc2ccc(F)cc2Cl)on1)N1CCC(c2ccncc2)CC1`, the growth rescue activity was -20.9% (inactive). For `Cc1ccc(-n2nnnc2SCC(=O)N2CCc3ccccc3C2)c(C)c1`, the growth rescue activity is -18.8% (inactive). Consider `CCOC(=O)c1ccc(-c2ccc(C3Nc4ccccc4C(=O)N3O)o2)cc1` (stereo unspecified), for which the growth rescue activity was -4.76% (inactive).

`CC(=O)Oc1ccc(N2C(=O)C3C4C=CC(O4)C3C2=O)cc1` (stereo unspecified): the growth rescue activity was 16.1% (inactive). Regarding `S=C(NNc1ccc2ccccc2c1)NC1CCCCC1`, the growth rescue activity was -14.9% (inactive).

For `CC1=CC(C)(C)N(S(=O)(=O)c2ccc(C)cc2)c2ccc(C)cc21`, the growth rescue activity was -55.9% (inactive). As for `O/N=C(\c1ccc(Cl)cc1Cl)c1ncc(C(F)(F)F)cc1Cl`, the growth rescue activity was -32.2% (inactive). Take `Fc1ccc(N2CCN(c3ccc4c(C(F)(F)F)cc(C(F)(F)F)nc4n3)CC2)cc1`: the growth rescue activity was 53.6% (inactive).

On to `Cc1ccc(NC(=S)c2nc3ccccc3[nH]2)c(C)c1`, for which the growth rescue activity was 32.1% (inactive). Regarding `CC(=O)NC(c1cccc([N+](=O)[O-])c1)c1ccc2cccnc2c1O` (stereo unspecified), the growth rescue activity was -39.9% (inactive).

With `O=c1oc(-c2ccccc2)cc(Cl)c1Cl`, the growth rescue activity was -71.1% (inactive). For the molecule `CC(C)C(=O)NC(c1cccc([N+](=O)[O-])c1)c1ccc2cccnc2c1O` (stereo unspecified), the growth rescue activity is -62.7% (inactive).

As for `O=C(COc1ccc([N+](=O)[O-])cc1)Nc1nc(-c2ccccn2)cs1`, the growth rescue activity is -63.6% (inactive).

As for `CC(=O)/C=C(\C)Nc1ccccc1O`, the growth rescue activity is -6.16% (inactive).

For `O=C1C(Cl)=C(NCc2cccnc2)C(=O)c2ccccc21`, the growth rescue activity was 26.7% (inactive).

Regarding `Nc1nc(-c2ccccc2)c(-c2ccc([N+](=O)[O-])cc2)s1`, the growth rescue activity is -79.9% (inactive). To `COc1ccc(-c2nc(N)sc2C2(O)C(=O)Nc3c(Br)cc(F)cc32)cc1OC` (stereo unspecified) belongs 0.392% (inactive); to `C=C(C)COc1ccc(-c2[nH]ncc2-c2ccccc2)c(O)c1`, -93.2% (inactive); to `O=Cc1ccc(O)c2ncccc12`, -72% (inactive).

As for `Cc1nc2c(o1)C(=O)c1ccccc1C2=Nc1ccccc1`, the growth rescue activity is -29.5% (inactive).

As to `Oc1c(Br)cc(-c2ccccc2)cc1Br`, the growth rescue activity is -84.6% (inactive). As for `COc1cnc(-c2ccccn2)nc1Sc1ccccc1`, the growth rescue activity was -65.3% (inactive). Consider `Cc1[nH]n(C(N)=S)c(=O)c1N=Nc1ccc2ccccc2c1`, for which the growth rescue activity is -41.4% (inactive).

Take `COc1cc([N+](=O)[O-])cc(/C=N/NC(=O)c2cncc(Br)c2)c1O`: the growth rescue activity is -13.3% (inactive). `CNc1ccc2oc(C[C@H]3O[C@@]4(CC[C@H]3C)O[C@H]([C@H](C)C(=O)c3ccc[nH]3)[C@H](C)C[C@H]4C)nc2c1C(=O)O`: the growth rescue activity was -78.1% (inactive). For the molecule `CN(C)c1nc(-c2ccccn2)nnc1-c1ccccc1`, the growth rescue activity was -23.6% (inactive). For `O=C(C1CCN(C2CC(=O)N(c3cccc(Cl)c3)C2=O)CC1)N1CCCC1` (stereo unspecified), the growth rescue activity was 84.3% (inactive). Regarding `C=C(C)COc1ccc(-c2[nH]ncc2-c2ccc(Br)cc2)c(O)c1`, the growth rescue activity is -77.7% (inactive). For `CCOc1ccc(-c2[nH]ncc2Oc2cccc(OC)c2)c(O)c1`, the growth rescue activity was -63.7% (inactive). Consider `O=C(NC(=S)N(CCc1ccccc1)CCc1ccccc1)c1ccco1`, for which the growth rescue activity is -9.38% (inactive).

As to `CC(=O)NC(=S)NNC(=O)C(c1ccccc1)c1ccccc1`, the growth rescue activity is -30.2% (inactive).

These data come from PubChem BioAssay AID624258 (Broad Institute, 2012).
